A melting point compilation (Tetko et al.)

melting point [°C] | SMILES
190 | Nc1c(CN2CCCCC2)c(=O)oc2ccccc12
47.5 | Cc1ccc(I)cc1N
142 | COc1ccc2c(c1)C(=O)CC(c1ccccc1)O2 (stereo unspecified)
300 | Nc1oc2ccc(Cl)cc2c(=O)c1C=O
64 to 67 | O=[N+]([O-])c1cc(Br)cnc1Cl
131 to 134 | COc1cc(C(O)C(=O)O)ccc1O (stereo unspecified)
177 | Cc1ccncc1C(=O)NN
204 | Cc1cc(Br)c(N)c(C(=O)O)c1
156 | O=C(O)c1ccc2c(c1)CCCC2
199 | CC(=O)Nc1ccc(N(Nc2ccccc2)C(C)=O)cc1
190 to 195 | O=C1Cc2cc(O)ccc2O1
275 | Cc1nn(C)c2ncc(C(N)=O)c(Cl)c12
167 | CCc1oc2ccccc2c1C(=O)c1cc(I)c(O)c(I)c1
212 to 213 | COc1ccc(-n2ncc(C(=O)O)c2C)cc1
180 | Nc1ccc2ccccc2c1S(=O)(=O)O
53 to 57 | CCOC(=O)c1c(Cl)cc(C)nc1Cl
123 | Cn1c(=O)on(-c2ccc(Cl)c(Cl)c2)c1=O
138 | COc1cc2c(cc1C)C(C(=O)O)C2 (stereo unspecified)
133 | Cc1n[nH]cc1[N+](=O)[O-]
198 | Cc1cc2ncn(C3OC(CO)C(O)C3O)c2cc1C (stereo unspecified)
300 | Cn1cnc2ncnc-2c1N
157 to 158 | CCOC(=O)c1sc2nc(C)cc(C)c2c1N
79 to 81 | COc1ccc(-c2noc(C)c2C(=O)Cl)cc1

Second part, the compound before the results:

SMILES | melting point [°C]
O=C1NC(=S)NC(=O)C1=NNc1cccc([N+](=O)[O-])c1 | 330
Oc1nsc(SCc2ccccc2)n1 | 123 to 125
O=c1c2ccccc2nc2n1CCc1c-2[nH]c2ccccc12 | 260
O=C1/C(=C/c2ccccc2O)SC(=S)N1CN1CCCCC1 | 166
NCc1ccc(OC2CCOCC2)cc1 | 41.5 to 43.5
CCCCC1CCCC1 | -108
Cc1ccc(C2NC(=O)NC(c3ccc(C)cc3)C2(C#N)C(=O)c2ccccc2)cc1 (stereo unspecified) | 234 to 235
COC(=O)CC(O)(CC(=O)OC)C(=O)OC | 79.3
O=S(=O)(N(c1ccccn1)S(=O)(=O)C(F)(F)F)C(F)(F)F | 39
COc1nsc(Nc2ccc(Br)cc2)n1 | 237 to 239
Clc1n[nH]c2ccccc12 | 149
OC1CN(C(c2ccccc2)c2ccccc2)C1 | 106 to 111
CS(=O)(=O)N1CCNCC1 | 99 to 100
COc1cc(F)c(F)cc1CBr | 42
C=CC1(C)C=C2CCC3C(C)(C(=O)O)CCCC3(C)C2CC1 (stereo unspecified) | 218
C1CCN(C2CCNCC2)C1 | 52 to 57
CC(C)(C#N)Nc1nc(Cl)nc(NC2CC2)n1 | 170
O=C(NC(=S)Nc1ccc(Cl)cc1)c1ccc(-c2ccccc2)cc1 | 165
C#CC1(O)CCC2(C)C(CCC3C4CCC(=O)C4(C)CCC32)C1 (stereo unspecified) | 237 to 238
COc1ccccc1N/N=C(\C(N)=O)c1nc2ccccc2s1 | 212
N#CCc1nc(-c2ccc([N+](=O)[O-])cc2)cs1 | 147 to 148
O=C(Nc1ccc(Cl)cc1)C(Cl)=C(Cl)Cl | 146
C1OC1C1CO1 (stereo unspecified) | 4
COc1cc(C(=O)NCc2ccc(OCCN(C)C)cc2)cc(OC)c1OC | 189
CC1CCC(C(C)C)C(OC(=O)C(=Cc2ccccc2)C(=O)c2ccccc2)C1 (stereo unspecified) | 65
O=C(CCCN1CCC(n2c(=S)[nH]c3ccccc32)CC1)c1ccc(F)cc1 | 202
CCC1CC(OC(=O)c2ccc([N+](=O)[O-])cc2)CC(C)(C)N1O (stereo unspecified) | 145 to 147
CCCCCCOc1ccc(N)cc1 | 44
